Measured values as given in paper PMC3227451, “Structure-based development of novel sirtuin inhibitors” (Aging (Albany NY), 2011).
Read-outs that look alike come from different tables or passages of the source.

Experiments:
Type in all cases: biochemical
Sirt2 = target: T1, Sirt2 (Homo sapiens, UniProt Q8IXJ6); test: Fluor-de-Lys peptide deacetylation assay, Sirt2
T1 sequence (Q8IXJ6 34-356): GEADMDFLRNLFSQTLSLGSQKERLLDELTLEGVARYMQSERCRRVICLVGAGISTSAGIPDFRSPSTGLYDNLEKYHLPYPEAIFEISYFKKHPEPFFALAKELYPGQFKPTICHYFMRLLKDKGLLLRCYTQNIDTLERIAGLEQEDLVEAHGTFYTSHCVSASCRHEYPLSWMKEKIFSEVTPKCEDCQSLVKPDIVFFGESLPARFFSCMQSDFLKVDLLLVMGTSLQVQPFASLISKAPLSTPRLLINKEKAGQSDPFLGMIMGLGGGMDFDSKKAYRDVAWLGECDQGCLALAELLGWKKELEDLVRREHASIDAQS
Experimental: The Sirt2 construct was expressed in E. coli Rosetta2 cells (Merck) in LB/Ampicillin/Chloramphenicol medium. Cells were grown at 37 °C, and expression induced at an OD600 of 0.6-0.8 for 4 h with 0.5 mM IPTG. Harvested cells were resuspended in buffer A (50 mM Tris/HCl pH 7.8, 200 mM NaCl, 2 mM DTT), disrupted with a Sonifier, and cell debris removed by 40 min centrifugation at 4 °C, 18000 rpm in a HFA22.50 rotor. The supernatant was supplemented with 10 mM imidazole and incubated with Ni-NTA resin for 1 h at 4 °C. […] The protein was concentrated in an amicon unit (Millipore, Billerica, USA) and digested over night at 4 °C with TEV-protease. The protease was removed from cleaved Sirt2 by incubation with Ni-NTA resin for 1 h at 4 °C. The protein was concentrated, 1:5 diluted with 50 mM Tris/HCl, pH 7.8, and applied to a HiTrap Q anion exchange column (GE Healthcare) equilibrated with 50 mM Tris/HCl, pH 7.8, 50 mM NaCl, 2 mM DTT and eluted with a gradient (20 column volumes) to 50 mM Tris/HCl, pH 7.8, 1 M NaCl, 2 mM DTT. Sirt2 was then applied to a Superdex200 gel filtration column (GE Healthcare) equilibrated in 20 mM Tris/HCl, pH 7.8, 150 mM NaCl, 2 mM DTT. The eluted protein was analyzed by SDS-PAGE, re-concentrated, and shock-frozen in liquid nitrogen for storage at -80 °C.
(§1) The commercial Fluor-de-Lys (FdL) assay kits 1 and 2 (Biomol, Plymouth Meeting, USA) were used to test the deacetylase activity of the four Sirtuins. In both kits the substrate derived from p53 is composed of three amino acids, the acetyl lysine and a C-terminally attached fluorophor. For Sirt2 and 3, FdL-2 peptide (QPK(acetyl-K)) was used, and FdL-1 peptide (RHK(acetyl-K)) for Sirt5 and Sirt6. All tests were done with 0.1 mM of the respective FdL peptide and 0.5 mM NAD^+ as substrates.
(§2) NCI compound stocks were prepared by dissolving them in DMSO at a concentration of 5 mM. The initial screens with all 40 compounds contained 5 μl Sirtuin solution (Sirt2/3 0.1 mg/ml stock concentration; Sirt5/6 1 mg/ml), 1 μl of compound stock (resulting in a 100 μM end concentration), 15 μl FdL substrate, and assay buffer (supplied in the assay kit) to a total volume of 50 μl. As control reactions, peptide with either the compound (without Sirtuin) or with Sirtuin and DMSO instead of compound were measured. After starting the reactions by adding the FdL substrate, assays were incubated for 30 min at 37 °C. Subsequently, 50 μl of a 10 mg/ml trypsin stock (“Developer solution”) were added and the reactions were incubated for 45 min at room temperature. Fluorescence values were measured in a fluorometric plate reader with excitation at 360 nm and read out at 485 nm. Values were then corrected with the control reaction (same compound, but without Sirtuin).
(§3) All measurements shown are averages of duplicates (screen) or triplicates (dose-response curves), and representatives of at least two independent replications. Error bars indicate standard deviations.

Sirt3 = target: T2, Sirt3 (Homo sapiens, UniProt Q9NTG7); test: Fluor-de-Lys peptide deacetylation assay, Sirt3
T2 construct: Sirt3 residues 114-399; His-tag with linker comprising a TEV protease cleavage site (N); made in house; host or cells: E. coli
T2 sequence (Q9NTG7 114-399): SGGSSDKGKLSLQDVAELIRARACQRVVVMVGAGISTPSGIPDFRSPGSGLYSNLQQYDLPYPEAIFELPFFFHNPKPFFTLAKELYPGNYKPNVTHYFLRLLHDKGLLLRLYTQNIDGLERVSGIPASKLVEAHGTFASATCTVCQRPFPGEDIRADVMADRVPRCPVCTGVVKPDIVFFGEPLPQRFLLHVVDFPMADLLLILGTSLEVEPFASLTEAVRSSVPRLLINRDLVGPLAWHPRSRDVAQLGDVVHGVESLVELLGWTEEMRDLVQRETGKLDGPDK
Experimental: (§4) Sirt3 was expressed in E. coli and purified via Ni-NTA and size exclusion chromatography as described elsewhere, and Sirt5 according to the protocol of Schuetz et al.. […] The protein was bound to the HiTrapQ column in buffer A and eluted in a gradient to buffer A supplemented with 400 mM KCl. Fractions were analyzed by SDS-PAGE, and the Sirt1 fractions were pooled and transferred into buffer A using a NAP column (GE Healthcare).
as §1, §2, §3

Sirt5 = target: T3, Sirt5 (Homo sapiens, UniProt Q9NXA8); test: Fluor-de-Lys peptide deacetylation assay, Sirt5
T3 construct: Sirt5 residues 34-302; His-tag with linker comprising a TEV protease cleavage site (N); made in house
T3 sequence (Q9NXA8 34-302): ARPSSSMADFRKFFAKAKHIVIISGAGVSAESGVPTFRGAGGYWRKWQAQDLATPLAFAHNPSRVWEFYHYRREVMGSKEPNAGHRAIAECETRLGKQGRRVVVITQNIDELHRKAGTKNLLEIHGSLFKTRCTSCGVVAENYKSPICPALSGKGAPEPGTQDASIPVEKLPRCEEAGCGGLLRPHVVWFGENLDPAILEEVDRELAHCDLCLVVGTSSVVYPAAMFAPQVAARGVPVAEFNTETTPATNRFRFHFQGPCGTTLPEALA
Experimental: as §4, §1, §2, §3

Sirt6 = target: T4, Sirt6 (Homo sapiens, UniProt Q8N6T7); test: Fluor-de-Lys peptide deacetylation assay, Sirt6
T4 construct: Sirt6 residues 13-308; His-tag with linker comprising a TEV protease cleavage site (N, cleaved yes); made in house; host or cells: E. coli Rosetta2
Experimental: as §1, §2, §3

[1] = 100 μM compound, 0.1 mM FdL-2 peptide, 0.5 mM NAD+
[2] = 100 μM compound, 0.1 mM FdL-1 peptide, 0.5 mM NAD+

T4 sequence (Q8N6T7 13-308): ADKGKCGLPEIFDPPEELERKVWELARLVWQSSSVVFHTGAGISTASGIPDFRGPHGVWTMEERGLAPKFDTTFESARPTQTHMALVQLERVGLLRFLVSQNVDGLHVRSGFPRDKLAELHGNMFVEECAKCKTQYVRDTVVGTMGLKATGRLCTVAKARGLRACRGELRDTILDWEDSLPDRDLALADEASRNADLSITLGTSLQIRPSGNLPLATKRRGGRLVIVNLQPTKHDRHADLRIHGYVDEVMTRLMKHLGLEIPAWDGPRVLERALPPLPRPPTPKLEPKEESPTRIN

Effect on the activity of Sirt3 (Sirt3; [1]) | Effect on the activity of Sirt5 (Sirt5; [2]) | Effect on the activity of Sirt6 (Sirt6; [2]) | Structure (SMILES) | Effect on the activity of Sirt2 (Sirt2; [1]) | Effect on the activity of Sirt2 (Sirt2) | Effect on the activity of Sirt3 (Sirt3) | Effect on the activity of Sirt5 (Sirt5) | Effect on the activity of Sirt6 (Sirt6)
--- (no such effect) | --- (no such effect) | activation | O=C1OC2(c3ccc(O)cc3Oc3cc(O)ccc32)c2c1c(-c1ccccc1)c(-c1ccccc1)c(-c1ccccc1)c2-c1ccccc1 [CSC28] | inhibition (significant inhibitory effects (>25% loss of activity)) |  |  |  | 
--- (no such effect) | --- (no such effect) | --- (no such effect) | O=C1C2C(c3ccccc3)NC(c3ccccc3)C1C(c1ccccc1)NC2c1ccccc1 (centres unmarked) [CSC29, 2,4,6,8-tetraphenyl-3,7-diazabicyclo[3.3.1]nonan-9-one] | --- (no such effect) |  |  |  | 
--- (no such effect) | --- (no such effect) | --- (no such effect) | O=C1C=C(Nc2nc(O)cc(C(=O)O)n2)c2ccccc2C1=O [CSC30, 2-((3,4-dioxo-3,4-dihydro-1-naphthalenyl)amino)-6-hydroxy-4-pyrimidinecarboxylic acid] | --- (no such effect) |  |  |  | 
 |  |  | O=c1c2ccccc2c2ccccc2c(=O)n1-c1cc2c3ccccc3ccc2c2ccccc12 [CSC31, 6-(6-chrysenyl)-5H-dibenzo[c,e]azepine-5,7(6H)-dione] |  | --- (key: inhibition: significant inhibitory effects (>25% loss of activity); ---: no such effect) | --- (key: inhibition: significant inhibitory effects (>25% loss of activity); ---: no such effect) | --- (key: inhibition: significant inhibitory effects (>25% loss of activity); ---: no such effect) | --- (key: inhibition: significant inhibitory effects (>25% loss of activity); ---: no such effect)
--- (no such effect) | --- (no such effect) | --- (no such effect) | COc1ccc2c(c1)Cc1cc(/N=[N+](\[O-])c3ccc4c(c3)Cc3cc(OC)ccc3-4)ccc1-2 [CSC32, 1-hydroxy-1,2-bis(7-methoxy-9H-fluoren-2-yl)-1^5-diazene] | inhibition (significant inhibitory effects (>25% loss of activity)) |  |  |  | 
--- (no such effect) | activation | activation | O=S1(=O)C(c2ccccc2)C(N2CCCCC2)C1C1CC2c3ccccc3C1c1ccccc12 (centres unmarked) [CSC33] | --- (no such effect) |  |  |  | 
--- (no such effect) | --- (no such effect) | activation | O=C1C2C3c4ccccc4C(C2C(=O)N1c1ccc(OCc2ccccc2)cc1)[n+]1ccccc13 (centres unmarked) [CSC34] | inhibition (significant inhibitory effects (>25% loss of activity)) |  |  |  | 
--- (no such effect) | --- (no such effect) | --- (no such effect) | O=C1c2ccccc2C(=O)c2c(NC(=O)c3ccc4c5c(ncnc35)-c3ccccc3C4=O)cccc21 [CSC36, N-(9,10-dioxo-9,10-dihydro-1-anthracenyl)-7-oxo-7H-benzo[e]perimidine-4-carboxamide, (Pigment Yellow 108)] | --- (no such effect) |  |  |  | 
--- (no such effect) | --- (no such effect) | --- (no such effect) | Clc1ccc(-c2noc(CN3CCCCC3)n2)cc1 [CSC37, 1-((3-(4-chlorophenyl)-1,2,4-oxadiazol-5-yl)methyl)piperidine] | inhibition (significant inhibitory effects (>25% loss of activity)) |  |  |  | 
--- (no such effect) | activation | activation | O=S(=O)(c1cccc(C(F)(F)F)c1)N1c2ccccc2-n2cccc2C1c1cccnc1 (centres unmarked) [CSC38, 4-(3-pyridinyl)-5-((3-(trifluoromethyl)phenyl)sulfonyl)-4,5-dihydropyrrolo[1,2-a]quinoxaline] | inhibition (significant inhibitory effects (>25% loss of activity)) |  |  |  | 
--- (no such effect) | --- (no such effect) | --- (no such effect) | OC1(C(O)(c2ccc(-c3ccccc3)cc2)c2ccc(-c3ccccc3)cc2)CCCCC1 [CSC39, 1-(di[1,1'-biphenyl]-4-yl(hydroxy)methyl)cyclohexanol] | --- (no such effect) |  |  |  | 
